In brackets after ≈: the same amount, converted by molar mass.
Columns and labels:
[1] = system: Penicillin (PC)sensitive S. (5 strains); test: MIC, two-fold serial agar dilution, Mueller-Hinton agar (geometric mean, group Gp-Ia); type: cell-based, S. aureus; settings: Staphylococcus aureus
Procedure: (§1) For a primary evaluation of some representative compounds of this invention, minimum inhibitory concentrations (MIC's) were determined against 32 strains of test organisms by two-fold serial agar dilution method in Mueller-Hinton agar.
Gp-Ia: Penicillin (PC)sensitive S.

PCresistant S. aureus = test: MIC, two-fold serial agar dilution, Mueller-Hinton agar (geometric mean, group Gp-Ib); type: cell-based; settings: Staphylococcus aureus, penicillin-resistant S. aureus, 5 strains
Procedure: as §1
GpIb: PCresistant S. aureus

[2] = system: Cephalothin (CET)sensitive E. coli(2), Kl. pneumoniae(1) and Pr. mirabilis(2); test: MIC, two-fold serial agar dilution, Mueller-Hinton agar (geometric mean, group Gn-Ia); type: cell-based; settings: 5 strains
Procedure: as §1
GnIa: Cephalothin (CET)sensitive E. coli(2)*, Kl. pneumoniae(1) and Pr.

[3] = system: CETresistant E. coli(3), and Kl. pneumoniae(2); test: MIC, two-fold serial agar dilution, Mueller-Hinton agar (geometric mean, group Gn-Ib); type: cell-based; settings: Escherichia coli, read-out: Geometric Mean of MIC, Gn-Ib
Procedure: as §1
GnIb: CETresistant E. coli(3), and Kl. pneumoniae(2)

[4] = system: M. morganii(1), Ent. cloacae(2), and Ser. marcescens(2); test: MIC, two-fold serial agar dilution, Mueller-Hinton agar (geometric mean, group Gn-II); type: cell-based; settings: 5 strains
Procedure: as §1
GnII: M. morganii(1), Ent. cloacae(2), and Ser. marcescens(2)

Ps. aeruginosa (7) = test: MIC, two-fold serial agar dilution, Mueller-Hinton agar (geometric mean, group Gn-III); type: cell-based; settings: Pseudomonas aeruginosa, 7 strains
Procedure: as §1
GnIII: Ps. aeruginosa (7)

B. fragilis A 22693 = test: In vitro activity against anaerobes (MIC), two-fold serial agar dilution, GAM agar; type: cell-based; settings: Bacteroides fragilis, A22693, Gn, Beta-Lactamase(-)
B. fragilis A 22053 = test: as above; type: cell-based; settings: Bacteroides fragilis, A22053, Gn, Beta-Lactamase(-)
B. fragilis A 22021 = test: as above; type: cell-based; settings: Bacteroides fragilis, A22021, Gn, Beta-Lactamase(-)
B. fragilis A 21916 = test: as above; type: cell-based; settings: Bacteroides fragilis, A21916, Gn, Beta-Lactamase(-)
B. fragilis A 22534 = test: as above; type: cell-based; settings: Bacteroides fragilis, A22534, Gn, Beta-Lactamase(+)
B. fragilis A 22695 = test: as above; type: cell-based; settings: Bacteroides fragilis, A22695, Gn, Beta-Lactamase(+)
B. fragilis A 22533 = test: as above; type: cell-based; settings: Bacteroides fragilis, A22533, Gn, Beta-Lactamase(+)
B. fragilis CUH-108 = test: as above; type: cell-based; settings: Bacteroides fragilis, CUH108, Gn, Beta-Lactamase(+), Clindamycin-resistant
Procedure: In vitro activity against anaerobic bacteria was determined on eight strains of B. fragilis by two-fold serial agar dilution method in GAM agar.

C. difficile A 21675 = test: In vitro activity against anaerobes (MIC); type: cell-based; settings: Clostridioides difficile, A21675, Gp, Clindamycin-resistant
C. perfringens A9635 = test: microbe, parasite or virus in culture; type: cell-based; settings: Clostridium perfringens
P. acnes A 21933 = test: In vitro activity against anaerobes (MIC); type: cell-based; settings: Cutibacterium acnes, A21933, Gp
E. coli Juhl [5] = test: MIC against the infecting organism (Table 2); settings: Escherichia coli
P. aeruginosa 9843A = test: MIC against the infecting organism (Table 2); settings: Pseudomonas aeruginosa
S. aureus Smith [6] = settings: Staphylococcus aureus, in Mus musculus, im, read-out: PD50
E. coli Juhl [7] = settings: Escherichia coli, in Mus musculus, im, read-out: PD50
S. aureus Smith [8] = test: MIC against the infecting organism (Table 2); settings: Staphylococcus aureus

| Structure (SMILES) | MIC [1] [µg/mL] | MIC (PCresistant S. aureus) [µg/mL] | MIC [2] [µg/mL] | MIC [3] [µg/mL] | MIC [4] [µg/mL] | MIC (Ps. aeruginosa (7)) [µg/mL] | MIC (B. fragilis A 22693) [µg/mL] | MIC (B. fragilis A 22053) [µg/mL] | MIC (B. fragilis A 22021) [µg/mL] | MIC (B. fragilis A 21916) [µg/mL] | MIC (B. fragilis A 22534) [µg/mL] | MIC (B. fragilis A 22695) [µg/mL] | MIC (B. fragilis A 22533) [µg/mL] | MIC (B. fragilis CUH-108) [µg/mL] | MIC (C. difficile A 21675) [µg/mL] | MIC (C. perfringens A9635) [µg/mL] | MIC (P. acnes A 21933) [µg/mL] | MIC (E. coli Juhl [5]) [µg/mL] | MIC (P. aeruginosa 9843A) [µg/mL] | ED50 (S. aureus Smith [6]) [mg/kg] | further results |
| --- | --- | --- | --- | --- | --- | --- | --- | --- | --- | --- | --- | --- | --- | --- | --- | --- | --- | --- | --- | --- | --- |
| CO/N=C(\C(=O)NC1C(=O)N2C(C(=O)O)=C(/C=C/COC(=O)c3ccc(O)c(O)c3)CS[C@H]12)c1nsc(N)n1 (stereo partly shown) [Ib, 7-[(Z)-2-(5-Amino-1,2,4-thiadiazol-3-yl)-2-methoxyiminoacetamido]-3-[(E)-3-(3,4-dihydroxybenzoyloxy)-1-propen-1-yl]-3-cephem-4carboxylic acid] | 3.4 (≈ 5.9 µM) | 3.1 (≈ 5.38 µM) | 0.022 (≈ 0.0382 µM) | 0.026 (≈ 0.0451 µM) | 0.53 (≈ 0.919 µM) | 0.49 (≈ 0.85 µM) | 3.1 (≈ 5.38 µM) | 3.1 (≈ 5.38 µM) | 0.2 (≈ 0.347 µM) | 12.5 (≈ 21.7 µM) | > 50 | 25 (≈ 43.4 µM) | > 50 | > 50 | 25 (≈ 43.4 µM) | 0.4 (≈ 0.694 µM) | 0.8 (≈ 1.39 µM) | 0.1 (≈ 0.173 µM) | 0.4 (≈ 0.694 µM) | 0.68 | ED50 (E. coli Juhl [7]): 0.037 mg/kg |
| CC(C)(O/N=C(\C(=O)NC1C(=O)N2C(C(=O)O)=C(/C=C/COC(=O)c3ccc(O)c(O)c3)CS[C@H]12)c1csc(N)n1)C(=O)O (stereo partly shown) [Ic, 7-[(Z)-2-(2-Aminothiazol-4-yl)-2-(1-carboxy-1-methylethoxyimino)acetamido]-3-[(E)-3-(3,4-dihydroxybenzoyloxy)-1-propen-1yl]-3-cephem-4-carboxylic acid] | 8.3 (≈ 12.8 µM) | 13 (≈ 20.1 µM) | 0.022 (≈ 0.034 µM) | 0.019 (≈ 0.0293 µM) | 0.17 (≈ 0.262 µM) | 0.82 (≈ 1.27 µM) | 3.1 (≈ 4.79 µM) | 0.8 (≈ 1.24 µM) | 0.2 (≈ 0.309 µM) | 0.8 (≈ 1.24 µM) | > 100 | 3.1 (≈ 4.79 µM) | > 100 | 12.5 (≈ 19.3 µM) | 50 (≈ 77.2 µM) | 0.4 (≈ 0.618 µM) | 0.8 (≈ 1.24 µM) | 0.2 (≈ 0.309 µM) | 0.2 (≈ 0.309 µM) | 2.2 | MIC (S. aureus Smith [8]): 12.5 µg/mL (≈ 19.3 µM); ED50 (E. coli Juhl [7]): 0.062 mg/kg |
